Assay results reported in patent US12029739B2, “SHP2 inhibitor and use thereof” (KANAPH THERAPEUTICS INC., priority 2021, dated 2024).
Read-outs that look alike come from different tables or passages of the source.

Legend:
[1] = test system: phospho-ERK in MIA PaCa2 or H358 cells; experiment: Phospho-ERK assay (AlphaLisa); type: cell-based
[2] = target: T1, SHP2 (full length) (Homo sapiens, UniProt Q06124); experiment: Phosphatase assay (PTPase assay) with DiFMUP substrate; type: biochemical; conditions: SHP2 activated with SHP2 activating peptide, DiFMUP 80 μM, 2 hours, fluorescence
T1 construct: SHP2 (full length, diluted to 100 pM final concentration in reaction buffer, BPS bioscience, US); purchased BPS bioscience, US
T1 sequence (Q06124 1-593): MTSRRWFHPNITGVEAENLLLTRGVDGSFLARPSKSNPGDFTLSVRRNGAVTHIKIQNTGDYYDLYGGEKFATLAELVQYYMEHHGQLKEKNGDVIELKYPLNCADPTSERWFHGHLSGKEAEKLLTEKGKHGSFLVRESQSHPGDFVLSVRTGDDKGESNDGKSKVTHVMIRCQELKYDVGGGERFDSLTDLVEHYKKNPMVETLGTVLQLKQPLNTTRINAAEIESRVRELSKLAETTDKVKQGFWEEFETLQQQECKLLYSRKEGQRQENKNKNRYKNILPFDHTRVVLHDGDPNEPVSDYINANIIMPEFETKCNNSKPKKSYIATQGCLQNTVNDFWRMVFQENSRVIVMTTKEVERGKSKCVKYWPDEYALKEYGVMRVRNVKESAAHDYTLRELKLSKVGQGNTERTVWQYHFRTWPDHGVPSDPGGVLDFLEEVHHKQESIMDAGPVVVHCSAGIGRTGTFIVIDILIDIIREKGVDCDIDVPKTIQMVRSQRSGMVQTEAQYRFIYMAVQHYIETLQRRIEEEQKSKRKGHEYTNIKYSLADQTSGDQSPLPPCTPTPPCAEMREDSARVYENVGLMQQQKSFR

[3] = MIA PaCa2 or H358 cells, compound incubated 1.5 hours, read-out: IC50 (p-ERK)
[4] = 1.5 h, MIA PaCa2 or H358 cells, compound incubated 1.5 hours, read-out: IC50 (p-ERK)
[5] = 1.5 h, read-out: IC50 (p-ERK, nM)

Row | IC50 ([2]; read-out: IC50 (PTPase aS say)) | Structure (SMILES) | further results
1 | 3 to 100 nM | COCCn1cnc2ccc(Sc3cnc(N4CCC5(CC4)Cc4ncsc4C5N)cn3)c(Cl)c2c1=O (stereo in doubt) [Example 145, 6-[5-[(6R)-6-aminospiro[4,6-dihydrocyclopenta[d]thiazole-5,4′-piperidin]-1′-yl]pyrazin-2-yl]sulfanyl-5-chloro-3-(2-methoxyethyl)quinazolin-4-one] | IC50 [1, 3]: 45 to 1500 nM
2 | 3 to 100 nM | COC(=O)c1cccc(Sc2cnc(N3CCC(C)(N)CC3)cn2)c1Cl [Example 1, methyl 3-((5-(4-amino-4-methylpiperidin-1-yl)pyrazin-2-yl)thio)-2-chlorobenzoate] | IC50 [1, 4]: 45 to 1500 nM
3 | 3 to 100 nM | CC1(CN)CCN(c2cnc(Sc3ccc4nc[nH]c(=O)c4c3Cl)cn2)CC1 [Example 3, 6-((5-(4-(aminomethyl)-4-methylpiperidin-1-yl)pyrazin-2-yl)thio)-5-chloroquinazolin-4(3H)-one] | IC50 [1, 4]: 45 to 1500 nM
4 | 3 to 100 nM | CC1(N)CCN(c2cnc(Sc3ccc4nc[nH]c(=O)c4c3Cl)cn2)CC1 [Example 4, 6-((5-(4-amino-4-methylpiperidin-1-yl)pyrazin-2-yl)thio)-5-chloroquinazolin-4(3H)-one] | IC50 [1, 4]: 45 to 1500 nM
5 | 3 to 100 nM | C[C@@H]1OCC2(CCN(c3cnc(Sc4ccc5nc[nH]c(=O)c5c4Cl)cn3)CC2)[C@@H]1N [Example 5, 6-((5-((3S,4S)-4-amino-3-methyl-2-oxa-8-azaspiro[4.5]decan-8-yl)pyrazin-2-yl)thio)-5-chloroquinazolin-4(3H)-one] | IC50 [1, 4]: 45 to 1500 nM
6 |  | CC1(CN)CCN(c2cnc(Sc3cccc(S(=O)(=O)F)c3Cl)cn2)CC1 [Example 6, 3-((5-(4-(aminomethyl)-4-methylpiperidin-1-yl)pyrazin-2-yl)thio)-2-chlorobenzenesulfonyl fluoride] | IC50 [1, 5]: 45 to 1500 nM; IC50 ([2]; IC50 (PTPase aS say, nM)): 3 to 100 nM
7 |  | CC1(N)CCN(c2cnc(Sc3cccc(S(=O)(=O)F)c3Cl)cn2)CC1 [Example 7, 3-((5-(4-amino-4-methylpiperidin-1-yl)pyrazin-2-yl)thio)-2-chlorobenzenesulfonyl fluoride] | IC50 [1, 5]: 45 to 1500 nM; IC50 ([2]; IC50 (PTPase aS say, nM)): 3 to 100 nM
8 | 3 to 100 nM | CNS(=O)(=O)c1cccc(Sc2cnc(N3CCC(C)(N)CC3)cn2)c1Cl [Example 8, 3-((5-(4-amino-4-methylpiperidin-1-yl)pyrazin-2-yl)thio)-2-chloro-N-methylbenzenesulfonamide] | IC50 [1, 4]: > 1500 nM
9 | < 3 nM | C[C@@H]1OCC2(CCN(c3cnc(Sc4cccc(S(N)(=O)=O)c4Cl)cn3)CC2)[C@@H]1N [Example 9, 3-((5-((3S,4S)-4-amino-3-methyl-2-oxa-8-azaspiro[4.5]decan-8-yl)pyrazin-2-yl)thio)-2-chlorobenzenesulfonamide] | IC50 [1, 4]: < 45 nM
10 | 3 to 100 nM | C[C@@H]1OCC2(CCN(c3cnc(Sc4cccc(S(=O)(=O)NCc5ccccc5)c4Cl)cn3)CC2)[C@@H]1N [Example 10, 3-((5-((3S,4S)-4-amino-3-methyl-2-oxa-8-azaspiro[4.5]decan-8-yl)pyrazin-2-yl)thio)-N-benzyl-2-chlorobenzenesulfonamide] | IC50 [1, 4]: < 45 nM
11 |  | Cc1nc2ccc(Sc3cnc(N4CCC(C)(CN)CC4)cn3)c(Cl)c2c(=O)n1Cc1cccc(S(=O)(=O)F)c1 [Example 21, 3-((6-((5-(4-(aminomethyl)-4-methylpiperidin-1-yl)pyrazin-2-yl)thio)-5-chloro-2methyl-4-oxoquinazolin-3(4H)-yl)methyl)benzenesulfonyl fluoride] | IC50 [1, 3]: 45 to 1500 nM
12 | 3 to 100 nM | C[C@@H]1OCC2(CCN(c3cnc(Sc4ccc5ncn(CC6CCCN6)c(=O)c5c4Cl)cn3)CC2)[C@@H]1N (stereo partly drawn) [Example 54, 6-((5-((3S,4S)-4-amino-3-methyl-2-oxa-8-azaspiro[4.5]decan-8-yl)pyrazin-2-yl)thio)-5-chloro-3-(pyrrolidin-2-ylmethyl)quinazolin-4(3H)-one] | 
13 | 3 to 100 nM | C[C@@H]1OCC2(CCN(c3cnc(Sc4ccc5ncn(CC6CCNC6)c(=O)c5c4Cl)cn3)CC2)[C@@H]1N (stereo partly drawn) [Example 55, 6-((5-((3S,4S)-4-amino-3-methyl-2-oxa-8-azaspiro[4.5]decan-8-yl)pyrazin-2-yl)thio)-5-chloro-3-(pyrrolidin-3-ylmethyl)quinazolin-4(3H)-one] | 
14 | < 3 nM | C[C@@H]1OCC2(CCN(c3cnc(Sc4ccc5ncn(Cc6ccon6)c(=O)c5c4Cl)cn3)CC2)[C@@H]1N [Example 56, 6-((5-((3S,4S)-4-amino-3-methyl-2-oxa-8-azaspiro[4.5]decan-8-yl)pyrazin-2-yl)thio)-5-chloro-3-(isoxazol-3-ylmethyl)quinazolin-4(3H)-one] | 
15 | < 3 nM | C[C@@H]1OCC2(CCN(c3cnc(Sc4ccc5ncn(Cc6ccno6)c(=O)c5c4Cl)cn3)CC2)[C@@H]1N [Example 57, 6-((5-((3S,4S)-4-amino-3-methyl-2-oxa-8-azaspiro[4.5]decan-8-yl)pyrazin-2-yl)thio)-5-chloro-3-(isoxazol-5-ylmethyl)quinazolin-4(3H)-one] | 
16 | 3 to 100 nM | C[C@@H]1OCC2(CCN(c3cnc(Sc4ccc5ncn(CCO)c(=O)c5c4Cl)cn3)CC2)[C@@H]1N [Example 58, 6-((5-((3S,4S)-4-amino-3-methyl-2-oxa-8-azaspiro[4.5]decan-8-yl)pyrazin-2-yl)thio)-5-chloro-3-(2-hydroxyethyl)quinazolin-4(3H)-one] | 
17 | 3 to 100 nM | C[C@@H]1OCC2(CCN(c3cnc(Sc4ccnc(C(=O)NCc5ccccc5)c4Cl)cn3)CC2)[C@@H]1N [Example 86, 4-((5-((3S,4S)-4-amino-3-methyl-2-oxa-8-azaspiro[4.5]decan-8-yl)pyrazin-2-yl)thio)-N-benzyl-3-chloropicolinamide] | 
18 | < 3 nM | N[C@@H]1c2ccccc2CC12CCN(c1cnc(Sc3ccc4ncn(Cc5ccccc5)c(=O)c4c3Cl)cn1)CC2 [Example 99, (S)-6-((5-(1-amino-1,3-dihydrospiro(indene-2,4′-piperidin]-1′-yl)pyrazin-2-yl)thio)-3-benzyl-5-chloroquinazolin-4(3H)-one] | 
19 | 3 to 100 nM | N[C@H]1c2ccccc2CC12CCN(c1cnc(Sc3ccc4ncn(Cc5ccccc5)c(=O)c4c3Cl)cn1)CC2 [Example 100] | 
20 | 3 to 100 nM | N[C@H]1c2cccnc2CC12CCN(c1cnc(Sc3ccc4ncn(Cc5ccccc5)c(=O)c4c3Cl)cn1)CC2 [Example 101, (R)-6-((5-(5-amino-5,7-dihydrospiro[cyclopenta[b]pyridine-6,4′-piperidin]-1′-yl)pyrazin-2-yl)thio)-3-benzyl-5-chloroquinazolin-4(3H)-one] | 
21 | < 3 nM | COc1ccc2c(c1)[C@@H](N)C1(CCN(c3cnc(Sc4ccc5ncn(CC(C)(C)O)c(=O)c5c4Cl)cn3)CC1)C2 [Example 162, (S)-6-((5-(1-amino-6-methoxy-1,3-dihydrospiro[indene-2,4′-piperidin]-1′-yl)pyrazin-2-yl)thio)-5-chloro-3-(2-hydroxy-2-methylpropyl)quinazolin-4(3H)-one] | 
22 | < 3 nM | COCCn1cnc2ccc(Sc3ncc(N4CCC5(CC4)Cc4ncsc4[C@H]5N)nc3N)c(Cl)c2c1=O [Example 164, (S)-6-((3-amino-5-(6-amino-4,6-dihydrospiro[cyclopenta[d]thiazole-5,4′-piperidin]-1′-yl)pyrazin-2-yl)thio)-5-chloro-3-(2-methoxyethyl)quinazolin-4(31-1)-one] | 
23 |  | COCCn1cnc2ccc(Sc3cnc(N4CCC5(CC4)CO[C@@H](C)[C@H]5N)nn3)c(Cl)c2c1=O [Example 183, 6-((3-((3S,4S)-4-amino-3-methyl-2-oxa-8-azaspiro[4.5]decan-8-yl)-1,2,4-triazin-6-yl)thio)-5-chloro-3-(2-methoxyethyl)quinazolin-4(3H)-one] | IC50 [1, 3]: > 1500 nM
24 | > 100 nM | Cn1c(N2CCN(C[C@@H](N)Cc3ccncc3)CC2)nc(N)c(Sc2cccc(Cl)c2Cl)c1=O [Example 187, (S)-6-amino-2-(4-(2-amino-3-(pyridin-4-yl)propyl)piperazin-1-yl)-5-((2,3-dichlorophenyl)thio)-3-methylpyrimidin-4(3H)-one] | 
25 | > 100 nM | Cn1c(N2CCN(CCN)CC2)nc(N)c(Sc2ccnc(N)c2Cl)c1=O [Example 192] | 
26 |  | CC1(N)CCN(c2cnc(-c3cccc(Cl)c3Cl)c(N)n2)CC1 [SHP099, 6-(4-amino-4-methylpiperidin-1-yl)-3-(2,3-dichlorophenyl)pyrazin-2-amine, reference compound] | IC50 [1, 5]: 45 to 1500 nM
27 |  | C[C@@H]1OCC2(CCN(c3cnc(Sc4ccnc(N)c4Cl)c(N)n3)CC2)[C@@H]1N [TNO155, (3S,4S)-8-(6-amino-5-((2-amino-3-chloropyridin-4-yl)thio)pyrazin-2-yl)-3-methyl-2-oxa-8-azaspiro[4.5]decan-4-amine, reference compound] | IC50 [1, 3]: < 45 nM

Row | Structure (SMILES) | IC50 ([2]; read-out: IC50 (PTPase aS say)) | further results
28 | CCOC(=O)c1cccc(Sc2c(N)nc(N3CCC(C)(N)CC3)n(C)c2=O)c1Cl [Example 2, ethyl 3-((4-amino-2-(4-amino-4-methylpiperidin-1-yl)-1-methyl-6-oxo-1,6-dihydropyrimidin-5-yl)thio)-2-chlorobenzoate] | > 100 nM | IC50 [1, 3]: 45 to 1500 nM
